# Structures can show the parent of a compound that is named as a salt. Where two headings read alike, the source gives them in different places.
# Columns and labels:
# CDK2/Cyclin A = CDK2/Cyclin A (Homo sapiens, UniProt P24941); test: Inhibition of CDK2/Cyclin A Retinoblastoma Kinase Activity; format: biochemical; conditions: for CDK2 % Inhibition At 0.03 μM: Table 2; for Ki: apparent Ki, CDK2/proteolyzed cyclin A, Rb fragment substrate, 25 μM ATP
# In short: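 CDK2 (10 or 19 nM), insect-cell expressed, gel-filtration purified with truncated cyclin A; Rb fragment substrate; 25 μM ATP; 10 mM HEPES pH 7.4, 10 mM MgCl2; 30° C, 60 or 75 min; EDTA stop; phosphocellulose/nitrocellulose capture, phosphorimager. % inhibition vs DMSO control, no-enzyme background subtracted.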
# [1] = target: human CDK4 and genetically truncated (1-264) cyclin D3 (Homo sapiens, UniProt P11802); test: Inhibition of CDK4/Cyclin D Retinoblastoma Kinase Activity; format: biochemical; conditions: for Ki: apparent Ki, CDK4/truncated cyclin D3, Rb fragment substrate, 25 μM ATP
# In short: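 The enzyme complex (5 nM), expressed in co-infected insect cells, was incubated with recombinant Rb fragment, 25 μM radiolabelled ATP and 2% DMSO at 30 °C. Reactions were stopped with EDTA after 20 minutes, or 60 minutes for tight-binding inhibitors. Apparent Ki values came from competitive inhibition fits.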
# HCT-116 cell line = test: Inhibition of cell growth, tetrazolium salt (MTT) assay; format: cell-based; conditions: for HCT-116 % Inhibition at 0.25 μM: 0.25 μM compound; for IC50: Homo sapiens, HCT-116, 120 h, MTT, three to five days, read-out: HCT-116 IC50
# In short: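 MTT colorimetric viability: three-to-five-day compound exposure in 0.5% (v/v) DMSO at 37° C, MTT 0.2 mg/mL for the last 4 h, A540 compared with vehicle-treated cells.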
# [2] = 0.1 μM compound, HCT-116, Table 4
# [3] = 0.1 μM compound, HCT-116, Table 3
# Sequence of human CDK4 and genetically truncated (1-264) cyclin D3 (P11802 whole entry, the tested form may be a part): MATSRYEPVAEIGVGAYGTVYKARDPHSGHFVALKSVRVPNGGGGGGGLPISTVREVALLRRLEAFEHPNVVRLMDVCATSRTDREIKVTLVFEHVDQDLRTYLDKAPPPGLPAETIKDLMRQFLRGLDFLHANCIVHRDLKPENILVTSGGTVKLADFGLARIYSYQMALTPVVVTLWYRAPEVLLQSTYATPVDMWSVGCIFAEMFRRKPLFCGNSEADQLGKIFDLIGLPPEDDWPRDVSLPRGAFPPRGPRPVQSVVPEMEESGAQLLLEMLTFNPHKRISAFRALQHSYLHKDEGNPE
# Sequence of human CDK4 and genetically truncated (1-264) cyclin D3 (P30281 1-264 partner): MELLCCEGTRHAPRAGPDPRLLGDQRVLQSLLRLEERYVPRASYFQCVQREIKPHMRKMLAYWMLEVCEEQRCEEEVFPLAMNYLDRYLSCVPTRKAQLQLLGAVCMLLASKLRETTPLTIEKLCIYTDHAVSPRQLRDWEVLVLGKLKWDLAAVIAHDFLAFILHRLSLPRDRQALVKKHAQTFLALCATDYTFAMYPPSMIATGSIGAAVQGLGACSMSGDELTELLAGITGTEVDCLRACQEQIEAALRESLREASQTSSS
structure (smiles),measurement,setting,value
Nc1nc(NC2CCN(C(=O)NCCc3ccccc3)CC2)sc1C(=O)c1c(F)cccc1F [Example O57],CDK2 % Inhibition At 0.03 μM,CDK2/Cyclin A; 0.03 μM compound,28%
same,CDK4 % Inhibition at 0.03 μM,"[1]; 0.03 μM compound, Table 2",−2%
same,HCT-116 % Inhibition at 0.25 μM,"HCT-116 cell line; HCT-116, Table 2",41%
Nc1nc(NC2CCN(C(=O)c3cccc(Br)c3)CC2)sc1C(=O)c1c(F)cccc1F [Example Q18],CDK2 % Inhibition at 0.03 μM,"CDK2/Cyclin A; 0.03 μM compound, Table 4",44%
same,CDK4 % Inhibition at 0.03 μM,"[1]; 0.03 μM compound, Table 4",73%
same,HCT-116 % Inhibition at 0.1 μM,HCT-116 cell line; [2],59%
same,HCT-116 % Inhibition at 0.25 μM,"HCT-116 cell line; HCT-116, Table 4",92%
"Cc1ccc(C(=O)N2CCC(Nc3nc(N)c(C(=O)c4c(F)cccc4F)s3)CC2)cc1C [Example D15, {4-Amino-2-[1-(3,4-dimethyl-benzoyl)-piperidin-4-ylamino]-thiazol-5-yl}-(2,6-difluoro-phenyl)-methanone]",Ki,CDK2/Cyclin A,0.17 µM
same,Ki,[1],0.027 µM
same,IC50,HCT-116 cell line; first HCT-116 column (c4),0.05 µM
same,IC50,HCT-116 cell line; second HCT-116 column (c5),0.17 µM
"Nc1nc(NC2CCN(S(=O)(=O)c3ccc(CCN4CCCC4)nc3)CC2)sc1C(=O)c1c(F)cccc1F [Example N2, (4-Amino-2-{1-[6-(2-pyrrolidin-1-yl-ethyl)-pyridine-3-sulfonyl]-piperidin-4-ylamino}-thiazol-5-yl)-(2,6-difluoro-phenyl)-methanone Hydrochloride Salt.]",Ki,CDK2/Cyclin A,0.0012 µM
same,Ki,[1],0.00049 µM
same,IC50,HCT-116 cell line; first HCT-116 column (c4),0.23 µM
same,IC50,HCT-116 cell line; second HCT-116 column (c5),> 0.5 µM
"COc1cc(C(=O)N2CCC(Nc3nc(N)c(C(=O)c4c(F)cccc4F)s3)CC2)cc(OC)c1C [Example D17, {4-Amino-2-[1-(3,5-dimethoxy-4-methyl-benzoyl)-piperidin-4-ylamino]-thiazol-5-yl-}(2,6-difluoro-phenyl)-methanone]",Ki,CDK2/Cyclin A,0.069 µM
same,Ki,[1],0.018 µM
same,IC50,HCT-116 cell line; first HCT-116 column (c4),0.057 µM
same,IC50,HCT-116 cell line; second HCT-116 column (c5),0.16 µM
CC(C)(C)c1ccc(C(=O)N2CCC(Nc3nc(N)c(C(=O)c4c(F)cccc4F)s3)CC2)cc1 [Example R153],CDK2 % Inhibition at 0.03 μM,CDK2/Cyclin A; at 0.03 μM,37%
same,CDK4 % Inhibition at 0.03 μM,[1]; at 0.03 μM,58%
same,HCT-116 % Inhibition at 0.1 μM,"HCT-116 cell line; HCT-116 cells, at 0.1 μM",0%
same,HCT-116 5 Inhibition at 0.25 μM,HCT-116 cell line; HCT-116 cells,44
CCC(C)CC(=O)N1CCC(Nc2nc(N)c(C(=O)c3c(F)cccc3F)s2)CC1 (stereo not drawn) [Example R171],CDK2 % Inhibition at 0.03 μM,CDK2/Cyclin A; at 0.03 μM,23%
same,CDK4 % Inhibition at 0.03 μM,[1]; at 0.03 μM,39%
same,HCT-116 % Inhibition at 0.1 μM,"HCT-116 cell line; HCT-116 cells, at 0.1 μM",0%
same,HCT-116 5 Inhibition at 0.25 μM,HCT-116 cell line; HCT-116 cells,46
"CC1C=CC(C)N1CCS(=O)(=O)N1CCC(Nc2nc(N)c(C(=O)c3c(F)cccc3F)s2)CC1 (mixture of isomers) [Example K27, (4-Amino-2-{1-[2-(cis/trans-2,5-dimethyl-2,5-dihydro-pyrrol-1-yl)-ethanesulfonyl]-piperidin-4-ylamino}-thiazol-5-yl)-(2,6-difluoro-phenyl)-methanone Trifluoroacetic Acid Salt.]",Ki,CDK2/Cyclin A,0.011 µM
same,Ki,[1],0.0035 µM
same,IC50,HCT-116 cell line; first HCT-116 column (c4),0.23 µM
same,IC50,HCT-116 cell line; second HCT-116 column (c5),0.8 µM
Nc1nc(NC2CCN(S(=O)(=O)c3ccc(F)cc3F)CC2)sc1C(=O)c1c(F)cccc1F [Example P34],CDK2 % Inhibition at 0.03 μM,"CDK2/Cyclin A; 0.03 μM compound, Table 3",60%
same,CDK4 % Inhibition at 0.03 μM,"[1]; 0.03 μM compound, Table 3",58%
same,HCT-116 % Inhibition at 0.1 μM,HCT-116 cell line; [3],8%
same,HCT-116 % Inhibition at 0.25 μM,"HCT-116 cell line; HCT-116, Table 3",23%
"CS(=O)(=O)N1CCC(Nc2nc(N)c(C(=O)c3c(F)cccc3F)s2)CC1 [Example F3, 1-[4-Amino-2-(1-methanesulfonyl-piperidin-4-ylamino)-thiazol-5-yl]-1-(2,6-difluoro-phenyl)-methanone]",Ki,CDK2/Cyclin A,0.0029 µM
same,Ki,[1],0.0059 µM
same,IC50,HCT-116 cell line; first HCT-116 column (c4),0.18 µM
same,IC50,HCT-116 cell line; second HCT-116 column (c5),0.48 µM
"CN1CCC[C@H]1COc1ccc(S(=O)(=O)N2CCC(Nc3nc(N)c(C(=O)c4c(F)cccc4F)s3)CC2)cn1 [Example H12, 1-(4-Amino-2-{1-[6-(1-methyl-pyrrolidin-2S-ylmethoxy)-pyridine-3-sulfonyl]-piperidin-4-ylamino}-thiazol-5-yl)-1-(2,6-difluoro-phenyl)-methanone]",Ki,CDK2/Cyclin A,0.00088 µM
same,Ki,[1],0.00039 µM
same,IC50,HCT-116 cell line; first HCT-116 column (c4),0.058 µM
same,IC50,HCT-116 cell line; second HCT-116 column (c5),0.4 µM
"CN(C)CCCc1ccc(S(=O)(=O)N2CCC(Nc3nc(N)c(C(=O)c4c(F)cccc4F)s3)CC2)cc1 [Example I10, 1-(4-Amino-2-{1-[4-(3-dimethylamino-propyl)-benzenesulfonyl]-piperidin-4-ylamino}-thiazol-5-yl)-1-(2,6-difluoro-phenyl)-methanone D-Glucuronic Acid Salt]",Ki,CDK2/Cyclin A,0.0012 µM
same,Ki,[1],0.00068 µM
same,IC50,HCT-116 cell line; first HCT-116 column (c4),0.2 µM
same,IC50,HCT-116 cell line; second HCT-116 column (c5),1.9 µM
COC(C(=O)N1CCC(Nc2nc(N)c(C(=O)c3c(F)cccc3F)s2)CC1)(c1ccccc1)C(F)(F)F (stereo not drawn) [Example R39],CDK2 % Inhibition at 0.03 μM,CDK2/Cyclin A; at 0.03 μM,−6%
same,CDK4 % Inhibition at 0.03 μM,[1]; at 0.03 μM,16%
same,HCT-116 % Inhibition at 0.1 μM,"HCT-116 cell line; HCT-116 cells, at 0.1 μM",5%
same,HCT-116 5 Inhibition at 0.25 μM,HCT-116 cell line; HCT-116 cells,51
Nc1nc(NC2CCN(C(=O)c3ccccc3)CC2)sc1C(=O)c1c(F)cccc1F [Example Q9],CDK2 % Inhibition at 0.03 μM,"CDK2/Cyclin A; 0.03 μM compound, Table 4",13%
same,CDK4 % Inhibition at 0.03 μM,"[1]; 0.03 μM compound, Table 4",52%
same,HCT-116 % Inhibition at 0.1 μM,HCT-116 cell line; [2],0%
same,HCT-116 % Inhibition at 0.25 μM,"HCT-116 cell line; HCT-116, Table 4",36%
CCOC(=O)C(CCSC)NC(=O)N1CCC(Nc2nc(N)c(C(=O)c3c(F)cccc3F)s2)CC1 (stereo not drawn) [Example O71],CDK2 % Inhibition At 0.03 μM,CDK2/Cyclin A; 0.03 μM compound,30%
same,CDK4 % Inhibition at 0.03 μM,"[1]; 0.03 μM compound, Table 2",7%
same,HCT-116 % Inhibition at 0.25 μM,"HCT-116 cell line; HCT-116, Table 2",51%
Nc1nc(NC2CCN(C(=O)CCCC3CCCCC3)CC2)sc1C(=O)c1c(F)cccc1F [Example R102],CDK2 % Inhibition at 0.03 μM,CDK2/Cyclin A; at 0.03 μM,18%
same,CDK4 % Inhibition at 0.03 μM,[1]; at 0.03 μM,34%
same,HCT-116 % Inhibition at 0.1 μM,"HCT-116 cell line; HCT-116 cells, at 0.1 μM",0%
same,HCT-116 5 Inhibition at 0.25 μM,HCT-116 cell line; HCT-116 cells,43
Nc1nc(NC2CCN(C(=O)Nc3cc(C(F)(F)F)ccc3F)CC2)sc1C(=O)c1c(F)cccc1F [Example O85],CDK2 % Inhibition At 0.03 μM,CDK2/Cyclin A; 0.03 μM compound,34%
same,CDK4 % Inhibition at 0.03 μM,"[1]; 0.03 μM compound, Table 2",8%
same,HCT-116 % Inhibition at 0.25 μM,"HCT-116 cell line; HCT-116, Table 2",47%
"Nc1nc(NC2CCN(S(=O)(=O)c3ccc(CN4CCOCC4)cc3)CC2)sc1C(=O)c1c(F)cccc1F [Example J8, 1-{4-Amino-2-[1-(4-morpholin4-ylmethyl-benzenzsulfonyl)-piperidin-4-ylamino]-thiazol-5-yl}-1-(2,6-difluoro-phenyl)-methanone Hydrochloride Salt]",Ki,CDK2/Cyclin A,0.0013 µM
same,Ki,[1],0.0012 µM
same,IC50,HCT-116 cell line; first HCT-116 column (c4),0.098 µM
same,IC50,HCT-116 cell line; second HCT-116 column (c5),0.4 µM
COC(=O)CCC(=O)N1CCC(Nc2nc(N)c(C(=O)c3c(F)cccc3F)s2)CC1 [Example Q49],CDK2 % Inhibition at 0.03 μM,"CDK2/Cyclin A; 0.03 μM compound, Table 4",16%
same,CDK4 % Inhibition at 0.03 μM,"[1]; 0.03 μM compound, Table 4",24%
same,HCT-116 % Inhibition at 0.1 μM,HCT-116 cell line; [2],0%
same,HCT-116 % Inhibition at 0.25 μM,"HCT-116 cell line; HCT-116, Table 4",28%
COC(=O)CCCCC(=O)N1CCC(Nc2nc(N)c(C(=O)c3c(F)cccc3F)s2)CC1 [Example R4],CDK2 % Inhibition at 0.03 μM,CDK2/Cyclin A; at 0.03 μM,−5%
same,CDK4 % Inhibition at 0.03 μM,[1]; at 0.03 μM,32%
same,HCT-116 % Inhibition at 0.1 μM,"HCT-116 cell line; HCT-116 cells, at 0.1 μM",3%
same,HCT-116 5 Inhibition at 0.25 μM,HCT-116 cell line; HCT-116 cells,47
CN(C)c1ccc(C(=O)N2CCC(Nc3nc(N)c(C(=O)c4c(F)cccc4F)s3)CC2)cc1 [Example R79],CDK2 % Inhibition at 0.03 μM,CDK2/Cyclin A; at 0.03 μM,14%
same,CDK4 % Inhibition at 0.03 μM,[1]; at 0.03 μM,16%
same,HCT-116 % Inhibition at 0.1 μM,"HCT-116 cell line; HCT-116 cells, at 0.1 μM",0%
same,HCT-116 5 Inhibition at 0.25 μM,HCT-116 cell line; HCT-116 cells,47
Nc1nc(NC2CCN(S(=O)(=O)c3ccc(-c4ccon4)s3)CC2)sc1C(=O)c1c(F)cccc1F [Example P64],CDK2 % Inhibition at 0.03 μM,"CDK2/Cyclin A; 0.03 μM compound, Table 3",80%
same,CDK4 % Inhibition at 0.03 μM,"[1]; 0.03 μM compound, Table 3",81%
same,HCT-116 % Inhibition at 0.1 μM,HCT-116 cell line; [3],13%
same,HCT-116 % Inhibition at 0.25 μM,"HCT-116 cell line; HCT-116, Table 3",31%
Nc1nc(NC2CCN(C(=O)C3CCCC3)CC2)sc1C(=O)c1c(F)cccc1F [Example Q57],CDK2 % Inhibition at 0.03 μM,"CDK2/Cyclin A; 0.03 μM compound, Table 4",32%
same,CDK4 % Inhibition at 0.03 μM,"[1]; 0.03 μM compound, Table 4",40%
same,HCT-116 % Inhibition at 0.1 μM,HCT-116 cell line; [2],0%
same,HCT-116 % Inhibition at 0.25 μM,"HCT-116 cell line; HCT-116, Table 4",32%
Cc1ccc(Oc2ncccc2C(=O)N2CCC(Nc3nc(N)c(C(=O)c4c(F)cccc4F)s3)CC2)cc1 [Example R45],CDK2 % Inhibition at 0.03 μM,CDK2/Cyclin A; at 0.03 μM,37%
same,CDK4 % Inhibition at 0.03 μM,[1]; at 0.03 μM,49%
same,HCT-116 % Inhibition at 0.1 μM,"HCT-116 cell line; HCT-116 cells, at 0.1 μM",2%
same,HCT-116 5 Inhibition at 0.25 μM,HCT-116 cell line; HCT-116 cells,36
